“Also recorded” adds a separate entry of the source.
Experiments:
[1] = tested on: human lymphocytes and monocytes; experiment: Cell viability by Trypan blue exclusion, human cells; format: cell-based; conditions: fluridone 50 μM
Description: Inhibition of proliferation is not due to fluridone toxicity since the percentage of viable cells (excluding the dye Trypan blue) was similar in the cultures incubated with fluridone compared to controls.
(§1) A similar effect (90% inhibition) is produced by fluridone also on the LPS-induced TNF-α production in both cell types (FIGS. 7 A and B). In all these cases, no toxicity of fluridone on the cells was observed, as evaluated by the ability of excluding the dye Trypan blue.

[2] = tested on: human granulocytes and lymphocytes; experiment: ABA content in stimulated human granulocytes and lymphocytes (immunoassay for ABA); format: cell-based; conditions: fluridone 10-50 μM
Description: The increase of the intracellular ABA concentration induced by f-MLP in granulocytes and by PMA in lymphocytes is inhibited by the addition of fluridone at micromolar concentrations (ranging between 10 and 50 μM) during cell incubation with the pro-inflammatory stimuli.

[3] = tested on: laboratory animals (mice, rats, dogs, fish and birds); conditions: even at high concentrations; cited from earlier work
rats = conditions: oral administration; cited from earlier work
whole blood cells = experiment: LPS-induced histamine release from blood cells; format: cell-based, human; conditions: pre-incubation with 50 μM fluridone
Description: Whole blood was pre-incubated for 2 hours at 25° C. in the absence (control) or in the presence of 50 μM fluridone. Then, 100 ng/ml of lipopolysaccharide (LPS) was added to the blood at 37° C. for the time indicated. The histamine concentration in plasma was measured immunoenzymatically with a commercially available kit (IBL-Hamburg, Germany). The results are the mean ±SD from 3 experiments.

[4] = tested on: murine macrophages RAW 264.7; experiment: Cell viability by Trypan blue exclusion, RAW 264.7; format: cell-based; conditions: RAW 264.7, fluridone 50 μM
From the text: as §1

[5] = tested on: murine microglial cell line N9; experiment: ABA content in murine microglia N9 by HPLC-MS; format: cell-based; conditions: N9 cells; fluridone 50 μM together with LPS
Description: Cells from the murine microglial cell line N9 were pre-incubated with or without 50 μM fluridone for 2 hours and then stimulated with 100 ng/ml lipopolysaccharide (LPS) for 24 hours. The ABA content was measured by HPLC-MS (see Materials and Methods) and was compared with that of untreated cells (control). The results are the mean from 2 experiments.
N9 cells were seeded (25×10^6/flask) in IMDM medium containing fetal calf serum, incubated for 3 h at 37° C. with or without 50 μM fluridone and then incubated for 3 days in the absence or in the presence of 200 ng/ml lipopolysaccharide (LPS). Cells were then recovered, washed in phosphate-buffered saline isotonic solution at pH 7.4 (PBS), resuspended in 0.5 ml water and sonicated. […] A small aliquot of the extract was used to determine radioactivity (with a β-counter), allowing the calculation of the percentage of ABA recovery after-extraction. The rest of the extract was analyzed on an Agilent 1100 capillary chromatography system, with a diode array detector, equipped with a Waters Atlantis™ dC18 150×1 mm column, particle size 3 μm, coupled to an Agilent 1100 series LC/MSD Trap mass spectrometer, equipped with an orthogonal geometry electrospray source and ion trap analyser. […]

human granulocytes [6] = experiment: Chemotaxis and chemokinesis of granulocytes; format: cell-based; conditions: ABA 0.2-20 μM
Description: Assays were performed using 96-well ChemoTx system microplates with a 3-μm pore size polycarbonate filter (NeuroProbe Inc., Gaithersburg, USA). Cells (granulocytes or murine microglia) were resuspended at 10^7/ml in HBSS, PBS and 5% albumin, 39:16:1 (chemotaxis buffer, CB). In order to evaluate the chemoattractant effect of ABA, hormone concentrations ranging from 50 nM to 20 μM were added in CB in the bottom wells and 25 μl cell suspensions were placed on top of the filter. To evaluate a possible stimulatory effect of ABA on spontaneous cell movements (chemokinesis), cells were pre-incubated with or without 20 μM ABA, then washed and placed on top of the filter, in contact with CB. Plates were incubated at 37° C. for 60 min and transmigrated cells were recovered and quantified by fluorimetric assay with Cytox Green. The number of transmigrated cells was calculated by comparison of the measured fluorescence with that of a standard curve, obtained by directly placing a serial dilution of cells in the bottom wells. The results of the chemotaxis experiments are expressed as “chemotaxis index” (CI): CI=number of cells migrated towards chemoattractant/number of cells migrated towards CB

[7] = tested on: murine macrophages RAW 264.7; experiment: COX-2 expression in LPS-stimulated RAW 264.7; format: cell-based; conditions: exogenous ABA 10-20 μM added to fluridone-treated cultures
Description: Murine macrophages from the RAW 264.7 cell line were stimulated with 10 μM ABA or with 100 ng/ml lipopolysaccharide (LPS) for 6 hours, after pre-incubation with 50 μM fluridone for 3 hours.

human granulocytes [8] = experiment: Intracellular cADPR content in granulocytes (enzymatic cycling assay); format: cell-based; conditions: ABA 20 μM
Description: (§2) Panel A. GDP-ribosyl cyclase activity has been measured in granulocytes in the presence of increasing ABA concentrations, added together with the cyclase substrate NGD^+. The results are expressed as cyclase activity relative to control cells, incubated in the absence of ABA (mean ±SD from 5 determinations). Panel B. The intracellular concentration of cADPR was measured by enzymatic cycling assay (Materials and Methods) on granulcoytes incubated with 20 μM ABA for the periods of time indicated. The results are expressed as [cADPR]i relative to control cells, incubated without ABA (n=2).
The assays to determine the intracellular cADPR concentration ([cADPR]i) in granulocytes are known to the expert in the field. Granulocytes (40×10^6/ml in RPMI 1640) were incubated in the presence of 20 μM ABA and at various times 500 μl-aliquots were withdrawn and centrifuged (5,000×g for 15 s) to recover the cell pellets. Determination of the [cADPR]i was performed on perchloric acid cell extracts by an enzymatic cycling assay, as described in (Graeff, Biochem. J. 2002).

human granulocytes [9] = experiment: GDP-ribosyl cyclase activity in granulocytes; format: cell-based; conditions: ABA 0.2 to 200 μM; detectable after 5 min
Description: as §2
Granulocytes were resuspended in HBSS (60×10^6/ml) and cyclase activity was measured by adding the substrate NGD^+ (a NAD^+ analogue, which product cGDPR is fluorescent) at the concentration of 0.2 mM together with increasing concentrations of ABA. At various times (0, 5, 15, 60 and 120 min) 100 μl-aliquots were withdrawn and centrifuged (5,000×g for 15 s) and supernatants were deproteinized with 2.5% (v/v) trichloroacetic acid. The cGDPR content was estimated by HPLC analysis, as described in (Guida, FEBS 1995).

| SMILES | toxicity on the cells (Trypan blue exclusion) ([1]; human monocytes) | percentage of viable cells (excluding Trypan blue) compared to controls ([1]; lymphocyte cultures) | inhibition of the increase of intracellular ABA concentration ([2]; granulocytes, f-MLP-induced) [%] | inhibition of the increase of intracellular ABA concentration ([2]; lymphocytes, PMA-induced) [%] | toxic, mutagenic, teratogenic or cancerogenic effects [3] | LD50 (rats) [mg/kg] | histamine release by LPS-stimulated (unfractionated) blood cells (whole blood cells) | toxicity on the cells (Trypan blue exclusion) [4] | reduction of the LPS-induced increase of intracellular ABA content [5] [%] | chemokinesis (human granulocytes [6]) | chemotaxis (chemoattractant effect) (human granulocytes [6]) | increase of COX-2 expression compromised by fluridone [7] | intracellular cADPR concentration ([cADPR]i) (human granulocytes [8]) | GDP-ribosyl cyclase activity (human granulocytes [9]) |
| --- | --- | --- | --- | --- | --- | --- | --- | --- | --- | --- | --- | --- | --- | --- |
| Cn1cc(-c2ccccc2)c(=O)c(-c2cccc(C(F)(F)F)c2)c1 [Fluridone, 1-methyl-3-phenyl-5-(α,α,α-trifluoro-m-tolyl)-4-pyridone] | no toxicity | similar | 40 | 50 | absence of toxic, mutagenic, teratogenic or cancerogenic effects | > 10000 | completely inhibits | no toxicity | 60 |  |  |  |  |  |
| CC1=CC(=O)CC(C)(C)[C@@]1(O)/C=C/C(C)=C\C(=O)O (racemic) [ABA, (±)-cis, trans ABA] |  |  |  |  |  |  |  |  |  | significant increase; also recorded: ↑chemokinesis | behaves as a chemoattractant; also recorded: ↑chemotaxis | partly restores | increase | dose-dependent stimulation |

— patent publication US7786042B2, “Fluridone as an anti-inflammatory agent” (Universita' Degli Studi Di Genova, priority 2005, dated 2010)
